Earlier results on one molecule are cited in patent US9139604B2, “Antiviral phosphonate analogs” (Gilead Sciences, Inc., priority 2003, dated 2015).

The structures appear in SMILES notation.

The series relates to HIV. The settings on record: described in the literature; kind of value (EC50/IC50) not stated.

Turning to `Nc1nc(=O)c2ncn([C@@H]3C[C@H](CO)[C@H]3CO)c2[nH]1` [lubocavir], the anti-HIV activity was 30 µM.
